Our source for the EC50 values is US9284271B2, “Compounds for the treatment of neurodegenerative diseases” (Katholieke Universiteit Leuven, K.U. Leuven R&D, priority 2010, dated 2016).

This test relates to M17-TAU P301L cells. The test can be described thus: Tau-induced toxicity experiment: LDH leakage of retinoic acid incubated M17-TAU P301L cells. The note with it: Homo sapiens, Neuroblastoma cell, 168 h; reduction of LDH activity of retinoic acid incubated M17-TAU P301L neuroblastoma cells; 7 days incubation; Promega Cytotox 96 assay. It is filed as cell-based. The text has this: A TAU expression plasmid was constructed by sub-cloning the cDNA of human TAU-P301L (encoding for TAU with proline 301 substituted by a leucine residue) into mammalian expression vector pcDNA3.1 resulting in plasmid pcDNA3.1-TAU P301L. Plasmids pcDNA3.1 and pcDNA3.1-TAU P301L were transfected to human neuroblastoma cells ([…]; ATCC No. CRL-2267) and independent clonal lines with the plasmids stably integrated into the genome were selected. […] Expression of the TAU P301L genes in the cell lines was confirmed by Western analysis.
In degenerated or dead cells lactate dehydrogenase (LDH) is leaked out of the cells into the extracellular environment due to a loss of plasma-membrane integrity. This principle was used to determine cytotoxicity by quantifying the level of leaked LDH into the growth medium.
The detailed method for determining TAU cytotoxicity was as follows: From appropriate precultures of M17-3.1 and M17-TAU(P301L) cells were seeded at 2500 cells/cm2 in Optimem Reduced Serum without phenol red (Gibco, Cat. 31985-047) supplemented with 1% fetal calf serum, 1 mM sodium pyruvate, 1× non-essential amino acids, 500 μg/ml G418 0.5× antibiotic/antimycotic. After 3 h of incubation at 37° C./5% CO2 1 volume of Optimem Reduced Serum (same as described above; except without fetal calf serum) supplemented with 2.5 μM retinoic acid (RA) was added. The cells were further incubated for 7 days. Subsequently, LDH activity was determined using Promega Cytotox 96 Non-Radioactive cytotoxicity assay, (Cat. G1780) according the supplier's instructions.
The M17-TAU P301L cell line made it possible to assess the ability of novel compounds to counteract TAU cytotoxicity. […] These measurements were used to calculate EC50 values of table 2.
Exemplary compounds of the present invention are shown in table 2, with their chemical name and their EC50 value (expressed in nM) as determined from example 75 in the Tau-induced toxicity experiment.
The term EC50 denotes the concentration at which the effect is half-maximal. Read a low EC50 as greater potency. The molecule `O=C(NCCc1c[nH]c2ccc(Cl)cc12)c1ccc(-c2cccc(F)c2)cc1` [Cpd039, N-(2-(5-chloro-1H-indol-3-yl)ethyl)-3′-fluorobiphenyl-4-carboxamide] registered an EC50 of 139 nM. That is a sub-micromolar value.

For the molecule `O=C(NCCc1c[nH]c2ccc(Cl)cc12)c1cccc(-c2ccccc2C(F)(F)F)c1` [Cpd065, N-(2-(5-chloro-1H-indol-3-yl)ethyl)-2′-(trifluoromethyl)biphenyl-3-carboxamide], the EC50 is 89 nM. `O=C(NCCc1c[nH]c2ccc(Cl)cc12)c1cccc(-c2cccc(F)c2)c1` [Cpd047, N-(2-(5-chloro-1H-indol-3-yl)ethyl)-3′-fluorobiphenyl-3-carboxamide] registered an EC50 of 408 nM. As for `O=C(NCCc1c[nH]c2ccc(F)cc12)c1ccnc(N2CCOCC2)c1` [Cpd007, N-(2-(5-fluoro-1H-indol-3-yl)ethyl)-2-morpholinoisonicotinamide], the figure is 1080 nM; as for `COc1cccc(-c2ccccc2C(=O)NCCc2c[nH]c3ccc(Cl)cc23)c1` [Cpd029, N-(2-(5-chloro-1H-indol-3-yl)ethyl)-3′-methoxybiphenyl-2-carboxamide], 523 nM. To `O=C(NCCc1c[nH]c2ccc(Cl)cc12)c1ccc(-c2cccc(C(F)(F)F)c2)cc1` [Cpd066, N-(2-(5-chloro-1H-indol-3-yl)ethyl)-3′-(trifluoromethyl)biphenyl-4-carboxamide] belongs 92 nM; to `N#Cc1cccc(-c2ccc(C(=O)NCCc3c[nH]c4ccc(Cl)cc34)cc2)c1` [Cpd050, N-(2-(5-chloro-1H-indol-3-yl)ethyl)-3′-cyanobiphenyl-4-carboxamide], 24 nM; to `O=C(NCCc1c[nH]c2ccc(Cl)cc12)c1ccccc1-c1ccc(Cl)cc1` [Cpd063, 4′-chloro-N-(2-(5-chloro-1H-indol-3-yl)ethyl)biphenyl-2-carboxamide], 154 nM. As for `Cc1ccc2[nH]cc(CCNC(=O)c3ccc(-c4ccccc4)cc3)c2c1` [Cpd004, N-(2-(5-methyl-1H-indol-3-yl)ethyl)biphenyl-4-carboxamide], the figure is 238 nM; as for `N#Cc1ccccc1-c1cccc(C(=O)NCCc2c[nH]c3ccc(Cl)cc23)c1` [Cpd043, N-(2-(5-chloro-1H-indol-3-yl)ethyl)-2′-cyanobiphenyl-3-carboxamide], 169 nM; as for `O=C(NCCc1c[nH]c2ccc(Cl)cc12)c1ccccc1-c1ccc(F)cc1` [Cpd040, N-(2-(5-chloro-1H-indol-3-yl)ethyl)-4′-fluorobiphenyl-2-carboxamide], 208 nM. Molecule `O=C(NCCc1c[nH]c2ccc(Cl)cc12)c1ccccc1-c1ccccc1F` [Cpd035, N-(2-(5-chloro-1H-indol-3-yl)ethyl)-2′-fluorobiphenyl-2-carboxamide] gave an EC50 of 165 nM.

The molecule `N#Cc1ccc(-c2cccc(C(=O)NCCc3c[nH]c4ccc(Cl)cc34)c2)cc1` [Cpd052, N-(2-(5-chloro-1H-indol-3-yl)ethyl)-4′-cyanobiphenyl-3-carboxamide] yielded a concentration for a half-maximal effect (EC50) of 112 nM. As for `O=C(NCCc1c[nH]c2ccc(F)cc12)c1ccc(-c2ccccc2)cc1` [Cpd003, N-(2-(5-fluoro-1H-indol-3-yl)ethyl)biphenyl-4-carboxamide], the figure is 448 nM; as for `N#Cc1cccc(-c2ccccc2C(=O)NCCc2c[nH]c3ccc(Cl)cc23)c1` [Cpd048, N-(2-(5-chloro-1H-indol-3-yl)ethyl)-3′-cyanobiphenyl-2-carboxamide], 232 nM.

On to `O=C(NCCc1c[nH]c2ccc(Cl)cc12)c1cccc(-c2ccc(Cl)cc2)c1` [Cpd060, 4′-chloro-N-(2-(5-chloro-1H-indol-3-yl)ethyl)biphenyl-3-carboxamide], for which the EC50 came to 159 nM.

Consider `N#Cc1cccc(-c2cccc(C(=O)NCCc3c[nH]c4ccc(Cl)cc34)c2)c1` [Cpd049, N-(2-(5-chloro-1H-indol-3-yl)ethyl)-3′-cyanobiphenyl-3-carboxamide], for which the EC50 stood at 61 nM. To `O=C(NCCc1c[nH]c2ccc(Cl)cc12)c1ccc(-c2ccncc2)cc1` [Cpd046, N-(2-(5-chloro-1H-indol-3-yl)ethyl)-4-(pyridin-4-yl)benzamide] belongs 269 nM; to `CCOC(=O)c1cnn(-c2ccc(C(=O)NCCc3c[nH]c4ccc(C)cc34)cc2)c1N` [Cpd005, ethyl 5-amino-1-(4-(2-(5-methyl-1H-indol-3-yl)ethylcarbamoyl)phenyl)-1H-pyrazole-4-carboxylate], 297 nM.
